Source: patent US20190320654A1, “VOLATILE ORGANIC COMPOUNDS FOR INHIBITING FUNGAL GROWTH” (Georgia State University Research Foundation, Inc., priority 2014, published 2019)

What was measured:
[1] = system: P. destructans conidia; test: VOC exposure assay with P. destructans conidia in a contained airspace; as to anti-P. destructans activity, growth from conidia: key: +: growth from spores; −: no visible growth; format: cell-based, Pseudogymnoascus destructans; conditions: for inhibitory activity on conidia: 11 days of exposure; for anti-P. destructans activity against conidia / inhibition of conidia with activated carbon: 30 μl; for anti-P. destructans activity against conidia: closed system; for inhibition of conidia with activated carbon: control plates containing 1 g activated carbon
Text: (§1) Volatile organic compounds previously shown to be produced by bacteria [Chuankun X, et al. Soil Biol Biochem. 2004 36:1997-2004; Fernando W G D, et al. Soil Biol Biochem. 2005 37:955-64] were screened for anti-P. destructans activity via VOC exposure to spores and mycelial plugs. The VOCs included: decanal; 2-ethyl-1-hexanol; nonanal; benzothiazole; benzaldehyde; and N,N-dimethyloctylamine (Sigma-Aldrich, Missouri). All VOCs were chosen based on their identification in fungistatic soils and their observed production in bacteria [Chuankun X, et al. Soil Biol Biochem. 2004 36:1997-2004; Fernando W G D, et al. Soil Biol Biochem. 2005 37:955-64]. All VOCs purchased as pure, liquid, research grade reagents and used directly, without modification, in all subsequent assays. A single-compartment Petri plate (150 mm×15 mm) was used for a contained airspace to assess P. destructans growth characteristics in the presence of fungistatic VOCs. Ten microliters of P. destructans conidia suspension (10^6 conidia ml^−1 in PBS) was spread onto SDA plates (35 mm×10 mm). Aliquots of 30, 3.0, or 0.3 μl of each VOC corresponding to maximum possible relative concentrations ranging from 113 ppm (v/v) to 1.13 ppm (v/v) were pipetted onto a sterile filter paper disk (12.7 mm) on a watch glass (75 mm). Each VOC containing disk and watch glass was placed inside a large Petri plate (150 mm 9 15 mm) along with a P. destructans-inoculated SDA plate (35 mm×10 mm) (FIG. 6). P. destructans mycelial plugs cut from the leading edge of actively growing colonies were inserted into fresh SDA plates (35 mm×10 mm) and placed in large Petri plates (150 mm×15 mm) with each formulation or pure VOC containing paper disk and sealed with parafilm M (Sigma-Aldrich, Missouri). […] Unexposed cultures and the addition of activated carbon to exposure assays served as negative controls for each trial. Anti-P. destructans activity was scored on a plus/minus scale for conidia-inoculated plates, and the radial growth from mycelial plugs was used to determine percent inhibition by comparing growth area of VOC exposed plugs to unexposed controls. All assays were performed in triplicate and averaged.

[2] = system: P. destructans mycelial plugs; test: VOC exposure assay with P. destructans mycelial plugs, radial growth area; format: cell-based, Pseudogymnoascus destructans; conditions: for inhibition of radial mycelial growth: 3 μl, up to 14 days
Text: as §1
Filamentous fungi grow by hyphae elongation and not by distinct cellular division. Accordingly, measuring the difference between the area growth of control agent-exposed mycelial plugs and control plugs has been a vetted method for assessing antimicrobial susceptibility [Fernando W G D, et al. Soil Biol Biochem. 2005 37:955-64; Liu W, et al. Curr Res Bacteriol. 2008 1:128-34; Strobel G A, et al. Microbiology. 2007 153:2613-20]. The use of a ruler to measure the area of mycelial growth of filamentous fungi has its own challenges. Mycelial plugs will often grow asymmetrically, either naturally or because of exposure to the compound being tested. To provide more accurate measurement of mycelial growth, a digital photography and analysis technique was developed.
The GIMP (GNU Image Manipulation Program) is open-source, freely distributed software for image editing and authoring, compatible with GNU/Linux, Microsoft Windows, Mac OS X, Sun OpenSolaris, and FreeBSD operating systems. This software allows for the direct measurement of the number of pixels in a given selected area of a photograph. GIMP version 2.8.2 for Microsoft Windows was used at the time of this writing. A Nikon D3100 digital single lens reflex camera with an 18-55 mm lens was used to capture images. A standard three-leg tripod was used for support during capture.
The camera was attached to the tripod and aimed down to a surface to provide a consistent distance from the lens to the mycelial surface being photographed; ensuring the same pixel to millimeter ratio was retained for all acquired images. Images of mycelial plugs had their corresponding image numbers catalogued for later identification. […]

[3] = 3 μl VOC, 7 day exposure, incubated with activated carbon
[4] = 3 μl VOC, 10 day exposure, incubated with activated carbon
[5] = 30 μl VOC, incubated with activated carbon, 15° C.

SMILES	anti-P. destructans activity, growth from conidia ([1]; 3 μl VOC, 7 day exposure)	anti-P. destructans activity, growth from conidia [1, 3]	anti-P. destructans activity, growth from conidia ([1]; 3 μl VOC, 10 day exposure)	anti-P. destructans activity, growth from conidia [1, 4]	inhibitory activity on conidia ([1]; 3 μl)	anti-P. destructans activity, growth from conidia ([1]; 30 μl VOC, 15° C.)	anti-P. destructans activity, growth from conidia [1, 5]	anti-P. destructans activity against conidia ([1]; 15° C.)	inhibition of conidia with activated carbon [1]	reduction in radial growth ([2]; 0.3 μl, 15° C., 14 days of exposure) [%]	colony morphology of cultures from conidia ([1]; 3 μl, without activated carbon)	reduction in growth area ([2]; 0.3 μl, 4° C., 35 days post-inoculation)	inhibition of radial mycelial growth ([2]; 15° C.)	reduction in growth as compared to unexposed controls ([2]; 30 μl, 15° C., 14 days of exposure) [%]	effect on radial growth as compared to unexposed controls ([2]; 0.3 μl, 15° C.)	inhibition of growth from conidia ([1]; 3 μl, 7 days)
CCCCC(CC)CO (stereo not drawn) [2-ethyl-1-hexanol]	−	+	−	+	demonstrated inhibitory activity	−	+	demonstrated anti-P. destructans activity	no inhibition							
O=Cc1ccccc1 [Benzaldehyde, benzaldehyde]	−	+	+	+		−	+	demonstrated anti-P. destructans activity	no inhibition							
c1ccc2scnc2c1 [Benzothiazole, benzothiazole]	−	+	+	+		−	−	demonstrated anti-P. destructans activity		60	unique colony morphology characterized by increased pigmentation of the underside of the culture and diffusion of pigment into the growth media					
CCCCCCCCCC=O [Decanal, decanal]	−	+	−	+	demonstrated inhibitory activity	−	+	demonstrated anti-P. destructans activity	no inhibition			greater than 99%	only minor reductions in radial growth	83		
CCCCCCCCN(C)C [N,N-dimethyloctylamine]	+	+	+	+		−	−	demonstrated anti-P. destructans activity					only minor reductions in radial growth		induced growth	unable to completely inhibit
CCCCCCCCC=O [Nonanal, nonanal]	−	+	−	+	demonstrated inhibitory activity	−	−	demonstrated anti-P. destructans activity								
CSSSC [dimethyltrisulfide]								demonstrated anti-P. destructans activity								
